Source: patent publication US20050010123A1, “Process for measuring QT intervals and constructing composite histograms to compare groups” (priority 2003, published 2005)

Test: Beat-to-beat QTc interval histograms from 24-hour ambulatory ECG (Holter) recordings
Assay type: in vivo, patients
From the text: An example of this type of device is a Reynolds Medical Tracker II (Reynolds Medical, Hertford UK) recorder. […] For QT interval analysis, the sample rate can be between 128 and 2000 samples per seconds. The preferred embodiment is the use of a sample rate of at least of at least 1000 samples per second. These digital recorders must also be compatible with a Holter playback system that can produce beat-to beat interval measurements. An example of this type of device is the Reynolds Medical LifeCard CF recorder (Reynolds Medical, Hertford, UK). An example of the compatible Holter playback system is the Reynolds Medical Pathfinder 700 series. […]
Using the digitized file of the electrocardiogram, a QT interval analysis may be accomplished in the following manner: The onset of a Q-wave (Qb) may be defined and a cursor may be placed at this point. […] The data from the digital file may then be replayed at 60-times normal time, while the cursors on the Qb and Te points may be monitored for stability. […] The QT intervals may be measured for the entire AECG recording on a beat-to-beat basis. […]
The peak of an R-wave may be detected and a third cursor may be placed (Rp). […]
In the examples described herein QTc was calculated by removing a time-series of the QT and preceding R--R intervals to a high-speed computer with both a fast processor and adequate disk storage space. […]

COc1cc(N)c(Cl)cc1C(=O)NC1CCN(CCCOc2ccc(F)cc2)CC1OC (centres unmarked) [cisapride, Cisapride]
mean QTc interval (QTc interval histogram of a single patient taking cisapride (FIG. 3), 24 hour AECG): 440 ms
mean QTc (composite curve of subjects on drug therapy (FIG. 4: subjects on cisapride), normal subjects 409 msec, ILQT 475 msec): 430 ms
